Data reported in the COVID Moonshot data (paper PMC11187573), “Identification of SARS-CoV-2 Mpro inhibitors through deep reinforcement learning for de novo drug design and computational chemistry approaches” (RSC Medicinal Chemistry, 2024).
pIC50: −log10 of the molar value.

Tests used:
[1] = biological target: SARS-CoV-2 Main Protease (SARS-CoV-2) (UniProt P0DTD1)
[2] = biological target: SARS-CoV-2 Main Protease (SARS-CoV-2) (UniProt P0DTD1); remark: listed apart in the source

Structure (SMILES) | inhibition ([1]; 20.0 µM) [%] | inhibition ([1]; 50.0 µM) [%] | inhibition ([2]; 50.0 µM) [%] | relative solubility at 20 uM | relative solubility at 100 uM | pIC50 [2] | inhibition ([2]; 20.0 µM) [%] | pIC50 [1]
CCC(C)CC(=O)N1CCCC(NC(=O)Cn2c(C)cc(C)nc2=O)CC1 (configuration not stated) | -4.95 | -19.4 | -29.6 | 0.98 | 1 | – | – | –
O=C(Cn1c(=O)[nH]c2ccccc21)Nc1cccc(Cl)c1 | -4.28 | -9.78 | 0 | 1 | 0.64 | – | – | –
C=CC(=O)N(c1cc(C(C)(C)C)on1)C(C(=O)NCCc1cccc(F)c1)c1cncc(Cl)c1 (configuration not stated) | 15.8 | 40.2 | 100 | 0.97 | 0.56 | 5.32 | – | –
O=C1CN(c2nnc(C3CCC(=O)N3)n2CCn2cc(Cl)cn2)CCN1 (configuration not stated) | -2.26 | -0.405 | 35.3 | 1 | 1 | – | – | –
C=CC(=O)N(c1ccc(C(C)(C)C)cc1)C(C(=O)NCCOC)c1cccnc1 (configuration not stated) | 35.7 | 52.7 | 70.3 | 1 | 1 | – | 25.7 | –
Cc1ccnc(C)c1NC(=O)NCc1cccc(N2CCOCC2)c1 | 2.7 | -9.74 | 0 | 1 | 1 | – | – | –
CCC(CC)C(=O)C(C#N)C(=O)Nc1ccc(F)cc1 (configuration not stated) | – | -16.2 | 0 | 1 | 1 | – | 0 | –
C=CC(=O)N(C1COC2(CCC2)C1)C(C(=O)NC(C)(C)C)c1cccnc1 (configuration not stated) | 12.6 | 13.4 | – | 0.97 | 0.96 | – | 0 | –
CCn1c(=O)n(CC(=O)Nc2c(C)ccnc2C)c2ccccc21 | -1.64 | -2.86 | 0 | 1 | 1 | – | – | –
O=C(Cc1cccc(Cl)c1)Nc1cnccc1O | 0.0135 | -2.06 | 0 | 1 | 1 | – | – | –
C=CC(=O)N(c1ccc(C2(C)CC2)cc1)C(C(=O)Nc1ccc(Cl)cc1)c1cccnc1 (configuration not stated) | – | -9.81 | -0.67 | 0.95 | 0.56 | – | 0 | –
CC(C)N(C)C(=O)C1CCN(C(=O)CCl)CC1 | 17.3 | 38.8 | – | 1 | 1 | – | -0.0976 | –
NS(=O)(=O)c1ccc(N2CCC(c3ccsc3)CC2)cc1 | 7.4 | 17.1 | 42 | 0.98 | 0.76 | – | 37.4 | –
Cc1cc(NC(=O)Cc2cncnc2)cc(OC2CC(=O)N2)c1 (configuration not stated) | 49.3 | 72.7 | 45 | 1.01 | 1 | – | – | –
NS(=O)(=O)c1ccc(N2CCC(Nc3ccc(F)cc3)CC2)cc1 | – | 8.08 | 50.2 | 1 | 0.89 | 4.41 | 3.79 | –
O=C(NCCN1CCN(C(=O)CCl)CC1)c1ccccc1 | 0.205 | 18.1 | – | 1 | 1.01 | – | 0.871 | –

Structure (SMILES) | inhibition ([1]; 20.0 µM) [%] | inhibition ([1]; 50.0 µM) [%] | inhibition ([2]; 50.0 µM) [%] | relative solubility at 20 uM | relative solubility at 100 uM | pIC50 [2] | inhibition ([2]; 20.0 µM) [%] | pIC50 [1]
O=C(C(F)Cl)N1CCCC(c2nc3ccccc3s2)C1 (configuration not stated) | 7.1 | 16.2 | 0 | 0.99 | 0.99 | – | 0 | –
Cc1ccncc1NC(=O)CCNc1ccc(S(N)(=O)=O)cc1 | – | -27.1 | 0 | 1 | 1 | – | 0 | –
N#Cc1ccc(NC(=O)Nc2cccnc2)cc1 | 5.82 | 11.6 | – | 1 | 1 | – | 0 | –
CNC(=O)OC1CCN(S(=O)(=O)c2ccccc2)CC1 | – | -16.3 | 0 | 1 | 1 | – | 4.89 | –
Cc1ccncc1NC(=O)Nc1cncc(C#N)c1 | 3.67 | 3.96 | 15.5 | 1 | 1 | – | – | –
O=C(c1cc(=O)[nH]c2cc(F)ccc12)N1CCN(S(=O)(=O)c2ccccc2)CC1 | 12.6 | 30.7 | 0 | 0.98 | 0.99 | – | – | –
Cc1noc(C)c1COc1ccccc1C(=O)NC(C)c1nnc2ncccn12 (configuration not stated) | 2.22 | 8.28 | 18.5 | 0.99 | 0.94 | – | 0 | –
Cc1ccncc1NC(=O)Cc1cccc(I)c1 | 17.4 | 39.7 | 64.3 | 1 | 1 | 4.16 | – | –
C=CC(=O)N(c1ccc2ncsc2c1)C(C(=O)Nc1ccc(Br)cc1)c1cccnc1 (configuration not stated) | 17.4 | 34.9 | – | 0.75 | 0.64 | – | 3.05 | –
C=CC(=O)N(c1ccc(C(C)(C)C)cc1)C(C(=O)NCCC(=O)OCC)c1cccnc1 (configuration not stated) | 27.8 | 46.3 | 43.7 | 0.99 | 0.97 | – | 12.3 | –
CCCN(CC1COc2ccccc2O1)C(=O)c1cc(=O)[nH]c2cc(F)ccc12 (configuration not stated) | 5.21 | 8.33 | 0 | 0.98 | 0.98 | – | – | –
Cc1ccc(S(=O)(=O)NC2CCN(C(=O)CCl)CC2)cc1 | 25.1 | 59.3 | – | 1 | 1.01 | 4.73 | 54.9 | –
COc1ccccc1OCCNC(=O)c1cc(=O)[nH]c2ccc(Cl)cc12 | -2.31 | 34.1 | 23 | 0.93 | 0.66 | – | – | –
COc1ccccc1OCCNC(=O)c1cc(=O)[nH]c2ccccc12 | 83.7 | 92.7 | 83.8 | 0.99 | 0.96 | 5.46 | 70.1 | 5.14
O=C(Cc1cccc(Cl)c1)Nc1cnns1 | 4.12 | 3.34 | 48.7 | 0.99 | 0.99 | – | – | –
